The values that follow come from ChEMBL document CHEMBL1949517, “Stylissamide X, a new proline-rich cyclic octapeptide as an inhibitor of cell migration, from an Indonesian marine sponge of Stylissa sp” (Bioorg Med Chem Lett, 2012).

In data set [1] the test system is HeLa. Put plainly: Anti-cell migration activity at human HeLa cells at 0.1 to 10 uM after 24 hrs by wound healing assay. The class given is functional, cell-based.
Data set [2] in a line: Cytotoxicity against human HeLa cells assessed as cell viability at 10 uM after 24 hrs by MTT assay. The class given is cell-based. The following applies: read-out: Activity. On the technique in general: Tetrazolium assays rely on reduction of a dye to a coloured formazan, in cell work by metabolically active cells.
In data set [3] the test system is HeLa. Put plainly: Anti-cell migration activity at EGF-induced human HeLa cells at 0.1 to 10 uM after 24 hrs by Giemsa-staining based chemotaxicell chamber assay. The class given is functional.

Activity calls are given as the source filed them. No cut-off for these calls is given here. Where a SMILES comes first, the peptide text is derived from it. Bounds are passed on as bounds.

Consider `CC[C@H](C)[C@@H]1NC(=O)[C@@H]2CCCN2C(=O)[C@H]([C@@H](C)O)NC(=O)[C@H](CC(C)C)NC(=O)[C@@H]2CCCN2C(=O)[C@H](Cc2ccccc2)NC(=O)[C@H](Cc2c[nH]c3ccccc23)NC(=O)[C@@H]2CCCN2C1=O` [STYLISSAMIDE X] (cyclo(FPLTPIPW)), for which the result in the data set with HeLa [1] and in the data set with HeLa [3] was Active. In addition, the viability at 24 h, 10 µM in data set [2] is greater than 75%.
